We go through 11 molecules from patent US9175045B2, “Peptidomimetic macrocycles” (Aileron Therapeutics, Inc., priority 2008, dated 2015).

Numbered stars: 1 amine (or outer) side, 2 acyl side, 3 side chain; on linkers, the order of the positions; unused ones are H or OH. Bridge positions count the residues as written; N and C are the ends. Square brackets hold non-standard residues; d marks the D form. Peptide text beside a SMILES is read from it. * marks the point of attachment. ξ: configuration not given here. ξαMeNle(6-ylidene) = CC(CCCC=[*:3])(N[*:1])C(=O)[*:2]; S5 = C=CCCC[C@](C)(N)C(=O)O; Nle = CCCC[C@H](N)C(=O)O; Aib = CC(C)(N)C(=O)O; Propionyl = CCC(=O)*

One assay has as its system Jurkat cell line. Type of assay: cell-based. The note with it: for EC50: 24 h. As for the experimental part:
Jurkat cell line (Clone E6-1, ATCC catalog #TIB-152) is grown in specific serum-supplemented media (RPMI-1640, Invitrogen catalog #22400) as recommended by ATCC. A day prior to the initiation of the study, cells are split at optimal cell density (2×10^5-5×10^5 cells/ml) to assure actively dividing cells. The next day, cells are washed twice in serum-free Opti-MEM media (Invitrogen, Catalog #51985) and cells are then plated at optimal cell density (10,000 cells/well) in 50 μl Opti-MEM media or Opti-MEM supplemented with 2% or 10% human serum (Bioreclamation, catalog #HMSRM) in 96-well white tissue culture plate (Nunc, catalog #136102).
For serum free experiment, crosslinked polypeptides are diluted from 2 mM stocks (100% DMSO) in sterile water to prepare 400 μM working solutions. The crosslinked polypeptides and controls are diluted 10-fold first and then serially two-fold diluted in Opti-MEM in dosing plates to provide concentrations of between 1.2 and 40 μM. 50 μl of each dilution is then added to the appropriate wells of the test plate to achieve final concentrations of the polypeptides equal to between 0.6 to 20 μM. For studies using Opti-MEM supplemented with human serum (Bioreclamation, catalog #HMSRM), crosslinked polypeptides are diluted from 10 mM stocks (100% DMSO) in sterile water to prepare 2 mM working solutions. The crosslinked polypeptides and controls are diluted 10-fold first and then serially two-fold diluted in Opti-MEM in the presence of 2% or 10% of human serum to provide concentrations of the polypeptides equal to between 6.25 to 200 μM in dosing plates. 50 μl of each dilution is then added to the appropriate wells of the test plate to achieve final concentrations of the polypeptides equal to between 3.125 to 100 μM. Controls included wells without polypeptides containing the same concentration of DMSO as the wells containing the macrocycles, wells containing 0.1% Triton X-100 and wells containing no cells. Plates are incubated for 24 hours at 37° C. in humidified 5% CO2 atmosphere.
At the end of the incubation period, CellTiter-Glo assay is performed according to manufacturer's instructions (Promega, catalog #G7573) and luminescence is measured using Synergy HT Plate reader (BioTek). Luminescence correlates with viability. A reduction in viability reflects the ability of the test compounds to induce programmed cell death via BAX and BAK.

A further assay concerns the target human serum proteins. Kind of assay: Apparent affinity to human serum proteins (Kd*) by EC50 shift analysis. It counts as in vitro ADME. The note with it: nonlinear regression of EC50 shift with serum, n = 1, P = 700 μM for 100% serum. From the text:
The measurement of apparent Kd values for serum protein by EC50 shift analysis provides a simple and rapid means of quantifying the propensity of experimental compounds to bind HSA and other serum proteins. A linear relationship exists between the apparent EC50 in the presence of serum protein (EC′50) and the amount of serum protein added to an in vitro assay. This relationship is defined by the binding affinity of the compound for serum proteins, expressed as Kd*. This term is an experimentally determined, apparent dissociation constant that may result from the cumulative effects of multiple, experimentally indistinguishable, binding events. The form of this relationship is presented here in Eq. 0.3, and its derivation can be found in Copeland et al, Biorg. Med. Chem. Lett. 2004, 14:2309-2312. [formula] A significant proportion of serum protein binding can be ascribed to drug interactions with HSA, due to the very high concentration of this protein in serum (35-50 g/L or 530-758 μM). To calculate the Kd value for these compounds we have assumed that the shift in EC50 upon protein addition can be ascribed fully to the HSA present in the added serum, where P is 700 μM for 100% serum, P is 70 μM for 10% serum, etc. We further made the simplifying assumption that all of the compounds bind HSA with a 1:1 stoichiometry, so that the term n in Eq. (0.3) is fixed at unity. With these parameters in place we calculated the Kd* value for each stapled peptide from the changes in EC50 values with increasing serum (and serum protein) concentrations by nonlinear regression analysis of Eq. 0.3 using Mathematica 4.1 (Wolfram Research, Inc., www.wolfram.com). EC′50 values in whole blood are estimated by setting P in Eq. 0.3 to 700 μM [HSA].

The target of assay [1] is T1, human serum proteins (binding ascribed fully to human serum albumin, HSA) (human, UniProt P02768 25-609).
T1 construct: No purified HSA was used
The experiment in a line: apparent Kd* by EC50 shift analysis: Jurkat viability EC50 at 0, 2 and 10% human serum, fit assuming 1:1 binding to HSA.

Assay [2] has as its target T1, human serum proteins (binding ascribed …). The experiment in a line: cell-based or functional assay.

T1 sequence (P02768 25-609 limits assumed): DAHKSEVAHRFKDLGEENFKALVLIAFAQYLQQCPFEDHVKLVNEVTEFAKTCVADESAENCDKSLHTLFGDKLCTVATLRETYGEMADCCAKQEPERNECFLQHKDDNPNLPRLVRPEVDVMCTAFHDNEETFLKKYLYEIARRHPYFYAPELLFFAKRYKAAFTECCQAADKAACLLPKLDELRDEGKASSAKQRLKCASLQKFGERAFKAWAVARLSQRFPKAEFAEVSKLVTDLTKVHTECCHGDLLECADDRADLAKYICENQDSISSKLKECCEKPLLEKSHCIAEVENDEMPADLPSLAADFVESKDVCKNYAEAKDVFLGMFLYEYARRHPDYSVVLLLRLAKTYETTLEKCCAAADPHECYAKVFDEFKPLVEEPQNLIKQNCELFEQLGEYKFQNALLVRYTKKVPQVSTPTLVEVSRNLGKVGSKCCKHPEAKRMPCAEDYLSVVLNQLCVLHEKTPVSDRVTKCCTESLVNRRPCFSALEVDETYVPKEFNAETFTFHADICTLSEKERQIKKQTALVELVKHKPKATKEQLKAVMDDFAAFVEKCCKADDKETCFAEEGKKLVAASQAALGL

For orientation: EC50 means the concentration needed to bring the measured effect to its halfway point. For `CCCC[C@H](NC(=O)C1(C)CCCC=CCCCC(C)(NC(=O)[C@H](C)NC(=O)[C@H](CC(C)C)NC(=O)[C@H](Cc2c[nH]cn2)NC(=O)[C@H](CCCNC(=N)N)NC(=O)[C@H](C)NC(=O)[C@@H](NC(=O)[C@H](CC(N)=O)NC(=O)[C@H](CCCNC(=N)N)NC(=O)CC)[C@@H](C)CC)C(=O)N[C@@H](C(C)C)C(=O)NC(C)(C)C(=O)N[C@@H](CC(=O)O)C(=O)N1)C(=O)N[C@@H](CC(=O)O)C(=O)N[C@@H](CCCNC(=N)N)C(=O)N[C@@H](CO)C(=O)N[C@H](C(N)=O)[C@@H](C)CC` (stereo partly drawn) [Compound 5, Pr-RNIARHLA$VAibD$NleDRSI-NH2] (Propionyl-RNIARHLA[ξαMeNle(6-ylidene)]V[Aib]D[ξαMeNle(6-ylidene)][Nle]DRSI-NH2; staple 9-13), the EC50 in the assay on Jurkat cell line is 1600 nM. The Kd at human serum proteins is 200 nM.
Turning to `CCCC[C@H](NC(=O)C1(C)CCCC=CCCCC(C)(NC(=O)C(C)(C)NC(=O)[C@H](CC(C)C)NC(=O)[C@H](Cc2c[nH]cn2)NC(=O)[C@H](CCCNC(=N)N)NC(=O)[C@H](C)NC(=O)[C@@H](NC(=O)[C@H](CC(N)=O)NC(=O)[C@H](CCCNC(=N)N)NC(=O)CC)[C@@H](C)CC)C(=O)N[C@@H](C(C)C)C(=O)NC(C)(C)C(=O)N[C@@H](CC(=O)O)C(=O)N1)C(=O)N[C@@H](CC(=O)O)C(=O)N[C@@H](CCCNC(=N)N)C(=O)N[C@@H](CO)C(=O)N[C@H](C(N)=O)[C@@H](C)CC` (stereo partly drawn) [Compound 6, Pr-RNIARHLAib$VAibD$NleDRSI-NH2] (Propionyl-RNIARHL[Aib][ξαMeNle(6-ylidene)]V[Aib]D[ξαMeNle(6-ylidene)][Nle]DRSI-NH2; staple 9-13), in the assay on Jurkat cell line, the EC50 was 1000 nM. Moreover, the Kd at human serum proteins amounted to 400 nM.
Consider `CCC(=O)N[C@@H](CCCNC(=N)N)C(=O)N[C@@H](CC(N)=O)C(=O)N[C@H](C(=O)N[C@@H](C)C(=O)N[C@@H](CCCNC(=N)N)C(=O)N[C@@H](Cc1c[nH]cn1)C(=O)N[C@@H](CC(C)C)C(=O)N[C@@H](C)C(=O)NC1(C)CCCC=CCCCC(C)(C(=O)N[C@@H](Cc2ccccc2)C(=O)N[C@@H](C)C(=O)N[C@@H](CCCNC(=N)N)C(=O)N[C@@H](CO)C(=O)N[C@H](C(N)=O)[C@@H](C)CC)NC(=O)[C@H](CC(=O)O)NC(=O)C(C)(C)NC(=O)[C@H](C(C)C)NC1=O)[C@@H](C)CC` (stereo partly drawn) [Compound 7, Pr-RNIARHLA$VAibD$FARSI-NH2] (Propionyl-RNIARHLA[ξαMeNle(6-ylidene)]V[Aib]D[ξαMeNle(6-ylidene)]FARSI-NH2; staple 9-13), for which the EC50 with Jurkat cell line amounted to 2200 nM. The Kd on human serum proteins was found to be 1100 nM.
For `CCCC[C@H](NC(=O)C1(C)CCCC=CCCCC(C)(NC(=O)[C@H](C)NC(=O)[C@H](CC(C)C)NC(=O)[C@H](Cc2c[nH]cn2)NC(=O)[C@H](CCCNC(=N)N)NC(=O)[C@H](C)NC(=O)[C@@H](NC(=O)[C@H](CC(N)=O)NC(=O)[C@H](CCCNC(=N)N)NC(=O)CC)[C@@H](C)CC)C(=O)N[C@@H](C(C)C)C(=O)NCC(=O)N[C@@H](CC(=O)O)C(=O)N1)C(=O)NC(C)(C)C(=O)N[C@@H](CCCNC(=N)N)C(=O)N[C@@H](CO)C(=O)N[C@H](C(N)=O)[C@@H](C)CC` (stereo partly drawn) [Compound 8, Pr-RNIARHLA$VGD$NleAibRSI-NH2] (Propionyl-RNIARHLA[ξαMeNle(6-ylidene)]VGD[ξαMeNle(6-ylidene)][Nle][Aib]RSI-NH2; staple 9-13), in the assay on Jurkat cell line, the 50% effective concentration (EC50) was found to be 2400 nM. In addition, the Kd at human serum proteins was 2300 nM.
Regarding `CC[C@H](C)[C@H](NC(=O)[C@H](Cc1c[nH]c2ccccc12)NC(=O)[C@H](CCCNC(=N)N)NC(C)=O)C(=O)N[C@@H](C)C(=O)N[C@@H](CCC(N)=O)C(=O)N[C@@H](C)C(=O)N[C@@H](CC(C)C)C(=O)N[C@@H](CCCNC(=N)N)C(=O)NC1(C)CCCC=CCCCC(C)(C(=O)N[C@@H](Cc2ccccc2)C(=O)N[C@@H](CC(N)=O)C(=O)N[C@@H](C)C(=O)N[C@@H](Cc2ccccc2)C(=O)N[C@@H](Cc2ccc(O)cc2)C(=O)N[C@@H](C)C(=O)N[C@@H](CCCNC(=N)N)C(=O)N[C@@H](CCCNC(=N)N)C(N)=O)NC(=O)[C@H](CC(=O)O)NC(=O)CNC(=O)[C@H]([C@@H](C)CC)NC1=O` (stereo partly drawn) [Compound 14, Ac-RWIAQALR$1GD$FNAFYARR-NH2], in the assay on Jurkat cell line, the EC50 turned out to be 400 nM. For the same molecule, on human serum proteins, the Kd turned out to be 2300 nM.
As to `CC[C@H](C)[C@H](NC(=O)[C@H](CCCNC(=N)N)NC(=O)[C@H](CCCNC(=N)N)NC(=O)[C@H](CCCNC(=N)N)NC(=O)[C@H](CC(C)C)NC(=O)[C@H](CCCNC(=N)N)NC(=O)[C@H](CCC(=O)O)NC(C)=O)C(=O)NC1(C)CCCC=CCCCC(C)(C(=O)N[C@@H](Cc2c[nH]cn2)C(=O)N[C@@H](Cc2c[nH]cn2)C(=O)N[C@@H](CO)C(=O)N[C@H](C(N)=O)[C@@H](C)O)NC(=O)[C@H](CCCNC(=N)N)NC(=O)[C@H](CS)NC(=O)[C@H](CC(C)C)NC1=O` (stereo partly drawn) [Compound 17, Ac-ERLRRRI$LCR$HHST-NH2] (Ac-ERLRRRI[ξαMeNle(6-ylidene)]LCR[ξαMeNle(6-ylidene)]HHST-NH2; staple 8-12), the half-maximal effective concentration (EC50) in the assay with Jurkat cell line came to 12000 nM. Besides, the “efficacy in serum-free media and in the presence of serum” value with Jurkat cell line (statement in words) was “high efficacy in serum-free media, which is substantially reduced in the presence of serum”. Moreover, the Kd at human serum proteins is less than 100 nM.
For the molecule `CC[C@H](C)[C@H](NC(=O)[C@H](CCCNC(=N)N)NC(=O)[C@H](CCCNC(=N)N)NC(=O)[C@H](CCCNC(=N)N)NC(=O)[C@H](CC(C)C)NC(=O)[C@H](CCCNC(=N)N)NC(=O)[C@H](CCC(=O)O)NC(C)=O)C(=O)NC1(C)CCCC=CCCCC(C)(C(=O)N[C@@H](Cc2c[nH]cn2)C(=O)N[C@@H](Cc2c[nH]cn2)C(=O)N[C@@H](CO)C(=O)N[C@H](C(N)=O)[C@@H](C)O)NC(=O)[C@H](CCCNC(=N)N)NC(=O)[C@H](C)NC(=O)[C@H](CC(C)C)NC1=O` (stereo partly drawn) [Compound 18, Ac-ERLRRRI$LAR$HHST-NH2] (Ac-ERLRRRI[ξαMeNle(6-ylidene)]LAR[ξαMeNle(6-ylidene)]HHST-NH2; staple 8-12), the EC50 in the assay with Jurkat cell line was greater than 20000 nM. Moreover, the Kd on human serum proteins was less than 100 nM.
In the case of Propionyl-RNIARHLA[S5]V[Aib]D[S5]FARSI-NH2 (staple 9-13) [Compound 7 (crosslinked polypeptide derived from human BID BH3)], in assay [1], the Kd amounted to 1100 nM. In addition, in assay [2], the “2% serum EC50 (Jurkat cell viability, CellTiter-Glo)” value (“2% serum EC50” below) turned out to be 12400 nM and the “10% serum EC50 (Jurkat cell viability, CellTiter-Glo)” value (shortened to “10% serum EC50”) came out at 48200 nM.
For Propionyl-RNIARHLA[S5]V[Aib]D[S5][Nle]DRSI-NH2 (staple 9-13) [Compound 5 (crosslinked polypeptide derived from human BID BH3)], in that order: 200 nM, 16700 nM and 63000 nM.
As to Propionyl-RNIARHL[Aib][S5]V[Aib]D[S5][Nle]DRSI-NH2 (staple 9-13) [Compound 6 (crosslinked polypeptide derived from human BID BH3)], the Kd in assay [1] worked out at 400 nM. Moreover, in assay [2], the “2% serum EC50” value turned out to be 10100 nM and the “10% serum EC50” value stood at 49700 nM.
With Ac-DIIRNIARHLA[S5]VGD[S5][Nle]DRSI-NH2 (staple 12-16) [Compound 1 (crosslinked polypeptide derived from human BID BH3)], the Kd in assay [1] is less than 100 nM. For the same molecule, in assay [2], the “2% serum EC50” value was 73900 nM and the “10% serum EC50” value was greater than 100000 nM.
